pEC50: −log10 of the molar value. The source made the active and inactive calls. The calls are words filed in the database; no cut-off is given here.
Experiments:
Marburgvirus = experiment: Antiviral activity against pseudotyped Marburg virus expressing glycoprotein infected in human A549 cells assessed as inhibition of viral entry incubated for 48 hrs by Neolite reporter gene assay; type: functional, organism-based; details: Orthomarburgvirus, A549, 48 h
Ebolavirus [1] = experiment: Antiviral activity against pseudotyped Ebola virus expressing glycoprotein infected in human A549 cells assessed as inhibition of viral entry incubated for 48 hrs by Neolite reporter gene assay; type: functional, organism-based; details: Orthoebolavirus, A549, 48 h
[2] = Selectivity index, ratio of CC50 for human A549 cells to EC50 for pseudotyped Ebola virus expressing glycoprotein infected in human A549 cells; type: toxicity, cell-based; details: read-out: Ratio CC50/EC50
Bundibugyo virus = experiment: Antiviral activity against pseudotyped Bundibugyo ebolavirus expressing glycoprotein infected in human A549 cells assessed as inhibition of viral entry incubated for 48 hrs by Neolite reporter gene assay; type: functional, organism-based; details: A549, 48 h
Reston ebolavirus = experiment: Antiviral activity against pseudotyped Reston ebolavirus expressing glycoprotein infected in human A549 cells assessed as inhibition of viral entry incubated for 48 hrs by Neolite reporter gene assay; type: functional, organism-based; details: A549, 48 h
Sudan ebolavirus = experiment: Antiviral activity against pseudotyped Sudan ebolavirus expressing glycoprotein infected in human A549 cells assessed as inhibition of viral entry incubated for 48 hrs by Neolite reporter gene assay; type: functional, organism-based; details: A549, 48 h
[3] = Selectivity index, ratio of CC50 for human HeLa cells to EC50 for antiviral activity against wildtype Ebolavirus infected in human HeLa cells; type: toxicity, cell-based; details: read-out: Ratio CC50/EC50
Ebolavirus [4] = experiment: Antiviral activity against wildtype Ebola virus infected in human HeLa cells incubated for 40 hrs by Hoechst 33342 staining based Cytation-1 automated microscopic analysis; type: functional, organism-based; details: Orthoebolavirus
Ebolavirus [5] = experiment: Binding affinity to Ebolavirus glycoprotein by SPR analysis
Zaire ebolavirus = experiment: Antiviral activity against pseudotyped Zaire ebolavirus expressing glycoprotein infected in human A549 cells assessed as inhibition of viral entry incubated for 48 hrs by Neolite reporter gene assay; type: functional, organism-based; details: A549, 48 h
HeLa = experiment: Cytotoxicity against human HeLa cells by Celltiter-Glo luminescent cell viability assay; type: toxicity, cell-based
Tai Forest ebolavirus = experiment: Antiviral activity against pseudotyped Tai Forest ebolavirus expressing glycoprotein infected in human A549 cells assessed as inhibition of viral entry incubated for 48 hrs by Neolite reporter gene assay; type: functional, organism-based; details: A549, 48 h
[6] = system: Vesicular stomatitis virus; experiment: Antiviral activity against pseudotyped vesicular stomatitis virus expressing glycoprotein infected in human A549 cells assessed as inhibition of viral entry incubated for 48 hrs by Neolite reporter gene assay; type: functional, organism-based
Influenza A virus = experiment: Antiviral activity against pseudotyped Influenza A virus A/Goose/Qinghai/59/05(H5N1) infected in human A549 cells assessed as inhibition of viral entry incubated for 48 hrs by Neolite reporter gene assay; type: functional, organism-based

| Compound | pEC50 (Marburgvirus) | pEC50 (Ebolavirus [1]) | selectivity ratio [2] | other results |
| --- | --- | --- | --- | --- |
| O=C(Nc1ccc(N2CCOCC2)c(C(F)(F)F)c1)c1ccc(CN2CCOCC2)cc1 | 5.16 | 6.31 | 69 | – |
| O=C(Nc1ccc(CN2CCOCC2)cc1)c1ccc(Cl)c(C(F)(F)F)c1 | 5.25 | 5.11 | 9 | – |
| CN1CCN(c2ccc(NC(=O)c3ccc(CN4CCOCC4)cc3)cc2C(F)(F)F)CC1 | 5.41 | 6.01 | 37 | – |
| CC1CCN(c2ccc(NC(=O)c3ccc(CN4CCOCC4)nc3)cc2C(F)(F)F)CC1 | 5.95 | 6.40 | 138 | – |
| O=C(Nc1csc(N2CCOCC2)n1)c1ccc(CN2CCOCC2)cc1 | < 4.00 | < 4.00 | > 1 | – |
| CC1CCN(c2ccc(NC(=O)c3ccc(CN4CCOCC4)cc3)cc2F)CC1 | < 4.00 | < 4.00 | > 1 | – |
| CC1CCN(c2ccc(N(CC3CC3)C(=O)c3ccc(CN4CCOCC4)cc3)cc2C(F)(F)F)CC1 | 5.34 | 5.74 | 22 | – |
| CC1CCN(c2ccc(NC(=O)c3ccc(CN4CCOCC4)cc3)cc2C(F)(F)F)CC1 | 5.28 | 6.66 | 129 | pEC50 (Bundibugyo virus): 5.44; pEC50 (Reston ebolavirus): 6.13; pEC50 (Sudan ebolavirus): 5.89; selectivity ratio [3]: 77; pEC50 (Ebolavirus [4]): 6.27; Activity (Ebolavirus [5]): Active; pEC50 (Zaire ebolavirus): 6.66; CC50 (HeLa): 42700 nM; pEC50 (Tai Forest ebolavirus): 6.77 |
| CC(C)(C)c1ccc(NC(=O)c2ccc(CN3CCOCC3)cc2)c(C(C)(C)C)c1 | 4.77 | 5.48 | 30 | – |
| CC1CCCN(c2ccc(NC(=O)c3ccc(CN4CCOCC4)cc3)cc2C(F)(F)F)C1 (configuration not stated) | 5.51 | 6.52 | 142 | – |
| CC1CCN(c2ccc(NC(=O)c3ccc(CN4C[C@@H]5C[C@H]4CO5)nc3)cc2C(F)(F)F)CC1 | 5.46 | 6.51 | 149 | Activity (Ebolavirus [5]): Active |
| O=C(Nc1ccc(C23CC4CC(CC(C4)C2)C3)cc1)c1ccc(CN2CCOCC2)cc1 | 5.09 | 6.82 | 495 | – |
| CC1CCN(c2ccc(NC(=O)c3ccc(CN4CCOCC4)cc3)cc2Cl)CC1 | 4.73 | 5.36 | 6 | – |
| O=C(Nc1ccc(N2CCC2)c(C(F)(F)F)c1)c1ccc(CN2CCOCC2)cc1 | 4.37 | 4.83 | 6 | – |
| CC(C)(C)C1CCN(c2ccc(NC(=O)c3ccc(CN4CCOCC4)cc3)cc2C(F)(F)F)CC1 | 5.21 | 5.84 | 13 | – |
| CC1CCN(c2ccc(NC(=O)c3ccc(CN4C[C@@H]5C[C@H]4CO5)cc3)cc2C(F)(F)F)CC1 | 5.87 | 6.64 | 86 | – |
| CC1(C)CCN(c2ccc(NC(=O)c3ccc(CN4CCOCC4)cc3)cc2C(F)(F)F)C1 | 5.84 | 6.72 | 321 | – |
| O=C(Nc1ccc(C23CC4CC(CC(C4)C2)C3)cc1)c1ccc(CN2C[C@@H]3C[C@H]2CO3)nc1 | 5.55 | 6.64 | 258 | Activity (Ebolavirus [5]): Active |
| CC1CCN(c2ccc(NC(=O)c3ccc(CN4C[C@@H]5C[C@H]4CO5)cn3)cc2C(F)(F)F)CC1 | 5.08 | 6.54 | 345 | – |
| O=C(Nc1ccc(C(F)(F)F)c(Cl)c1)c1ccc(CN2CCOCC2)cc1 | 5.41 | 4.65 | 1 | – |

| Compound | pEC50 (Marburgvirus) | pEC50 (Ebolavirus [1]) | selectivity ratio [2] | other results |
| --- | --- | --- | --- | --- |
| CC1(C)CCCN(c2ccc(NC(=O)c3ccc(CN4CCOCC4)cc3)cc2C(F)(F)F)C1 | 5.18 | 6.43 | 107 | – |
| O=C(Nc1ccc(N2CCC3(CCC3)CC2)c(C(F)(F)F)c1)c1ccc(CN2C[C@H]3C[C@@H]2CO3)nc1 | 6.06 | 6.68 | – | pEC50 (Bundibugyo virus): 6.02; pEC50 (Reston ebolavirus): 6.40; pEC50 (Sudan ebolavirus): 6.38; inhibition [6]: Weak_effect; pEC50 (Ebolavirus [4]): 6.28; pEC50 (Zaire ebolavirus): 6.68; CC50 (HeLa): 13400 nM; inhibition (Influenza A virus): Weak_effect; pEC50 (Tai Forest ebolavirus): 6.77 |
| O=C(Nc1ccc(N2CCC3(CCC3)CC2)c(C(F)(F)F)c1)c1ccc(C(=O)N2C[C@H]3C[C@@H]2CO3)nc1 | 5.41 | 6.64 | 201 | pEC50 (Bundibugyo virus): 5.92; pEC50 (Reston ebolavirus): 6.59; pEC50 (Sudan ebolavirus): 5.79; inhibition [6]: Weak_effect; selectivity ratio [3]: 49; pEC50 (Ebolavirus [4]): 6.05; pEC50 (Zaire ebolavirus): 6.64; CC50 (HeLa): 43400 nM; inhibition (Influenza A virus): Weak_effect; pEC50 (Tai Forest ebolavirus): 6.89 |
| O=C(Nc1ccc(Cl)c(C(F)(F)F)c1)c1ccc(CN2CCOCC2)cc1 | 5.25 | 5.09 | 6 | – |
| O=C(Nc1ccc(C23CC4CC(CC(C4)C2)C3)cc1)c1ccc(CN2C[C@@H]3C[C@H]2CO3)cc1 | 5.88 | 6.70 | 77 | selectivity ratio [3]: 17; pEC50 (Ebolavirus [4]): 6.21; Activity (Ebolavirus [5]): Active; CC50 (HeLa): 10300 nM |
| O=C(Nc1ccc(C23CC4CC(CC(O)(C4)C2)C3)cc1)c1ccc(CN2CCOCC2)cc1 | 4.60 | 4.19 | – | – |
| O=C(Nc1ccc(N2CC3(CCC3)C2)c(C(F)(F)F)c1)c1ccc(CN2CCOCC2)cc1 | 5.44 | 6.07 | 116 | – |
| O=C(Nc1ccc(SC(F)(F)F)c(Cl)c1)c1ccc(CN2CCOCC2)cc1 | 5.07 | 5.31 | 5 | – |
| O=C(c1ccc(CN2CCOCC2)cc1)N(c1ccccc1)c1ccccc1 | 4.15 | 5.17 | > 15 | – |
| CC1CCN(c2ccc(NC(=O)c3ccc(CN4CCOCC4)cc3)cn2)CC1 | 4.61 | 4.91 | 8 | – |
| O=C(Nc1ccc(CN2CCOCC2)cc1)Nc1ccc(C23CC4CC(CC(C4)C2)C3)cc1 | 5.59 | 6.43 | 32 | selectivity ratio [3]: 24; pEC50 (Ebolavirus [4]): 6.15; CC50 (HeLa): 16600 nM |
| O=C(N[C@]12CC3CC(C[C@@H](C3)C1)C2)c1ccc(CN2CCOCC2)cc1 | 4.27 | 5.20 | 16 | – |
| CC1CCN(c2ccc(NC(=O)Nc3ccc(CN4CCOCC4)cc3)cc2C(F)(F)F)CC1 | 5.46 | 5.66 | 7 | – |
| O=C(Nc1ccc(N2CCC3(CCC3)CC2)c(C(F)(F)F)c1)c1ccc(CN2CCOCC2)cc1 | 5.95 | 7.05 | 209 | – |
| CC1CC(C)CN(c2ccc(NC(=O)c3ccc(CN4CCOCC4)cc3)cc2C(F)(F)F)C1 (configuration not stated) | 5.27 | 5.97 | 52 | – |
| CC1CCN(c2ccc(N(C)C(=O)c3ccc(CN4CCOCC4)cc3)cc2C(F)(F)F)CC1 | 5.12 | 5.81 | 33 | – |
| CC1CCN(c2ccc(C(=O)Nc3ccc(CN4CCOCC4)cc3)cc2C(F)(F)F)CC1 | 5.54 | 5.99 | 23 | – |
| CC(C)C1CCN(c2ccc(NC(=O)c3ccc(CN4CCOCC4)cc3)cc2C(F)(F)F)CC1 | 5.25 | 6.25 | 28 | – |
| O=C(Nc1ccc(N2CCCC2)c(C(F)(F)F)c1)c1ccc(CN2CCOCC2)cc1 | 4.83 | 5.48 | 18 | – |
